Patent publication US5859227A, “RNA sequences which interact with RNA-binding proteins” (Bearsden Bio, Inc., priority 1997, dated 1999)

Key:
TNF-α production = conditions: previously shown; cited from earlier work
[1] = test system: AUUUA RNA / RNA binding protein (K562 extract); assay: Exploratory library screen, filter binding, 32P-labeled AUUUA RNA and K562 extract; conditions: 10 μM
Excerpt: FIG. 4 is a graph of the amount of radioactively labeled RNA retained on a filter (expressed in percent of the amount of RNA retained on a filter in a reference binding solution) following loading of various binding solutions. All of the binding solutions contained radioactively labeled AUUUA RNA either alone or including various other components. The first column represents a binding solution without RNA binding protein. The remaining columns represent binding solution containing RNA binding protein (K562 extract). Columns 3 through 8 correspond to binding solutions including the indicated test compound.
(§1) a. Filter binding. Filter binding involves trapping interacting molecules on a filter while non interacting molecules pass through the filter. This procedure is known to those of skill in the art. For example, prewet nitrocellulose filters are equilibrated in 1× binding buffer. The binding reaction is then applied to the filter by vacuum filtration to remove unbound RNA. The filter is washed in 1× binding buffer, scintillation cocktail is added and the amount of protein-bound RNA is determined by scintillation counting.
(§2) All binding reactions were performed in 96-well v-bottom plates in a final volume of 10 μl. The assays were constituted and performed as described below. Specifically, assays were performed by (1) forming a binding solution including RNA molecules, 7.5 mM BTP at pH 8.5, 10 mM KCl, 5 mM MgCl2, 0.2 mM DTT, and 10% glycerol, (2) heating the binding solution to denature the RNA molecules, (3) cooling the binding solution, (4) adding RNA binding proteins to the binding solution, (5) loading the binding solution onto a filter, and (6) detecting the amount RNA retain on the filter. It is preferred that the samples be loaded on to a filter of either pure nitrocellulose or a mixed cellulose ester (MCA). It is also preferred that the filters have a 0.2μ pore size, although filters with a 0.45μ pore size will also bind the RNA/RNA binding protein complex. It is preferred that, prior to loading the binding solution onto a filter, the volume is increased. For this purpose, it is preferred that the dilution solution has the same buffer components as the binding solution except lacking the density agent. For a 10 μl volume it is preferred that the final volume be about 100 μl. It is also preferred that the binding solution be loaded onto the filter under vacuum. It is also preferred that the filter is washed twice prior to detecting the amount of RNA retained on the filter. Preferably the wash solution had the same composition as the dilution solution. However, TE (pH 8.0), PBS, or TCA can also be used as wash solutions. In most of the assays described below, the RNA molecules were labeled with ^32 P.
The library was initially screened at 10 μM against ^32 P-labeled AUUUA RNA. Several methods of introducing the compounds into the binding reaction were tested. Initially the compounds were co-incubated with the RNA and protein, producing modest results. Next, preincubation with either the protein extract or the RNA was tried with improved results.
Seventeen compounds were chosen for further analysis at 100 nM, 1 μM and 10 μM using both AUUUA and IRE RNAs based on the results from three screening efforts (Exps. 29-31). Table 2 summarizes the results from these compounds at 10 μM. The results are also shown graphically in FIG. 4. […] Compounds D9 and H2, chosen as negative controls from the initial screening, continued to have no effect in the dose dependent screen (Exp. 33) and were identified as vehicle controls.
A 96 member random compound library was screened with the disclosed high throughput assay. The compounds were initially screened at 10 μM against ^32 P-labeled AUUUA RNA. […] Seventeen compounds were chosen for further analysis at 100 nM, 1 μM and 10 μM using both AUUUA and IRE RNA molecules to determine if any selectivity of the compounds could be detected. […]

[2] = test system: IRE RNA / RNA binding protein (K562 extract); assay: High throughput filter binding assay, labeled IRE RNA and K562 protein extract; conditions: hemin 1 to 100 μM; FeCl3 and desferroxiamine 1 μM to 1 mM
Protocol: as §1
as §2, with “It is also preferred that the binding solution be loaded onto the filter under vacuum. It is also preferred that the filter is washed twice prior to detecting the amount of RNA retained on the filter. Preferably the wash solution had the same composition as the dilution solution. However, TE (pH 8.0), PBS, or TCA can also be used as wash solutions. In most of the assays described below, the RNA molecules were labeled with ^32 P.” left out
Binding assays were performed with wild-type IRE RNA and K562 protein extract in the presence of sources of iron or iron chelators to determine the ability of the filter assay to detect the modulation of binding interactions by small molecules. […] The reactions were analyzed by gel shifts to visualize the results of the filter assay. […]

[3] = test system: human CD45 5' UTR / RNA binding proteins (K562 cell line protein); assay: Gel shift specificity (competition), labeled CD45 5' UTR and K562 protein; conditions: 100 and 1,000 fold molar excess of unlabeled RNA
Excerpt: (§3) A primer pair was designed from the 5' end of the UTR and a 3' primer encompassing nucleotide +1 with the use of the OLIGO program. Similar primers encompassing the same criteria can be designed either manually without the use of this program, or using another similar oligonucleotide design program. In addition, the 5' primer contained 24 nucleotides at the 5' end encoding for the T7 promoter. Clones containing the above sequences were generated by rtPCR from total RNA obtained from the K562 lymphoblastoma cell line. The clones were restriction mapped and analyzed by gel electrophoresis to confirm their identity.
(§4) PCR products generating a single band (in the undigested lanes) were then used for in vitro transcription of labeled RNA using Ambion's Maxiscript Kit. The labeled transcripts were used in the RNA binding protein detection assay described above. The binding solutions containing the labeled RNA were incubated with 2 μg of protein isolated from the same cell from which the rtPCR product was generated, and the products were resolved on a non-denaturing gel. […] In this experiment, a 100 and 1,000 fold molar excess of unlabeled identical RNA or the same excess of different RNA are added to the binding reactions.

[4] = test system: human C4b-binding protein 5' UTR / RNA binding proteins (K562 cell line protein); assay: Gel shift specificity (competition), labeled C4b-binding protein 5' UTR and K562 protein; conditions: 100 and 1,000 fold molar excess of unlabeled RNA
Excerpt: as §3, §4

Molecule: CC(=NN=C(N)N)c1cc(NC(=O)CCCCCCCCC(=O)Nc2cc(C(C)=NN=C(N)N)cc(C(C)=NN=C(N)N)c2)cc(C(C)=NN=C(N)N)c1 [Compound G10, CNI-1493]
- post-transcriptional inhibition of TNF-α production (TNF-α production): post-transcriptionally inhibit TNF-α production
- change in counts across the experiments ([1]; 4 experiments): substantial increase in counts in 3 of the 4 experiments
- labeled AUUUA RNA retained on filter, percent of RNA&K562 reference, Experiment #29 ([1]; RNA&K562 = 100): 114.53%
- labeled AUUUA RNA retained on filter, percent of RNA&K562 reference, Experiment #30 ([1]; RNA&K562 = 100): 66.94%
- labeled AUUUA RNA retained on filter, percent of RNA&K562 reference, Experiment #31 ([1]; RNA&K562 = 100): 127.28%
- labeled AUUUA RNA retained on filter, percent of RNA&K562 reference, Experiment #33 ([1]; RNA&K562 = 100): 135.24%
- Avg. % (labeled AUUUA RNA retained on filter) ([1]; mean of Experiments #33, #31, #30, #29): 111.00%

Molecule: CC(=O)N(O)CCCCCNC(=O)CCC(=O)N(O)CCCCCNC(=O)CCC(=O)N(O)CCCCCN [Desferroxiamine, desferroxiamine]
- modulation of IRE/protein binding by small molecules [2]: did not change the amount IRE/protein complex formed

Molecule: [Cl][Fe]([Cl])[Cl] [FeCl3]
- modulation of IRE/protein binding by small molecules [2]: concentration-dependent inhibition of binding

Molecule: hemin
- modulation of IRE/protein binding by small molecules [2]: concentration-dependent inhibition of binding

B1: CD45: 5' UTR RNA of human CD45, SEQ ID NO:4 (nucleic acid)
chain: CUGACAUCAUCACCUAGCAGUUCAUGCAGCUAGCAAGUGGUUUGUUCUUAGGGUAACAGAGGAGGAAAUUGUUCCUCGUCUGAUAAGACAACAGUGGAGAAAGGACGCAUGCAGUUUCUUAGGGACACGGCUGACUUCCAGAUAUGACCAUGUAUUUGUGGCUUAAACUCUUGG
- competition of complex formation by unlabeled RNA [3]: concentration dependent inhibition of complex formation

B2: C4b-binding protein: 5' UTR RNA of human C4b-binding protein alpha chain, SEQ ID NO:3 (nucleic acid)
chain: GCUGCUUUAUUUCUGCUGUUAAUCAUUCAUUGGGCCCGUCAAAAGUUUCUGCCCAUCUAUUUCCAUCAACCGUCCUUGACCAGCCAACCACAUGGCUGAAAUUCAGG
modifications: expressed or natural sequence
- competition of complex formation by unlabeled RNA [4]: concentration dependent inhibition of complex formation
